Source: patent US10869846B2, “N-acetylcysteine amide (NAC amide) in the treatment of diseases and conditions associated with oxidative stress” (SENTIENT LIFESCIENCES, INC., priority 2005, dated 2020)

System: PC12 cells
Assay: MDA measurement in glutamate-exposed cells
Type: cell-based
Conditions: 24 h
Description: MDA measurement: To prepare the solution, 350 μl of straight cell homogenate, 100 μl of 500 ppm BHT (butylated hydroxytoluene), and 550 μl of 10% TCA (trichloroacetic acid) were combined and boiled for 30 min. The tubes were cooled on ice and centrifuged for 10 min at 2500 rpm. Five hundred (500) μl of the supernatant were removed and 500 μl of TBA (thiobarbituric acid) were added. The tubes were boiled again for 30 min, and then cooled on ice. From this solution, 500 μl were removed, added to 1.0 ml of n-butanol, vortexed, and centrifuged for 5 min at 60 g to facilitate a phase separation. The top layer was then filtered through 0.45 μm filters and injected onto a 5 μm C18 column (250×4.6 mm) on a reverse phase HPLC system. The mobile phase consisted of 69.4% 5 mM sodium phosphate buffer (pH=7.0), 30% acetonitrile, and 0.6% THF (tetrahydrofuran). The excitation wavelength was 515 nm; the emission wavelength was 550 nm (Draper H. H. et al., Free Radic Biol Med., 15(4):353-63, 1993).
Cells were plated and grown for 24 hours, and then they were exposed to glutamate (10 mM) in the presence or absence of NAC amide (750 μM). Twenty-four hours later, the cells were harvested and malondialdehyde levels were measured. Values represent means.+−.SD. Statistically different values of *P<0.002 and **P<0.05 were determined, compared to control. ***P<0.05 compared to glutamate-treated group.

## N-acetylcysteine amide [NAC amide]
GLU (10 mM) + NAC amide (750 μM)
  MDA Levels: 88 ± 11 nM/100 mg protein
NAC amide (750 μM) alone
  MDA Levels: 81 ± 22 nM/100 mg protein
